The target in the assay is T1, G-protein coupled bile acid receptor 1 (GPBAR1 or TGR5) (Homo sapiens, UniProt Q8TDU6).
T1 construct: human TGR5-ORF (NM_170699), stably expressed in HEK EPAC cells
T1 sequence (Q8TDU6 1-330): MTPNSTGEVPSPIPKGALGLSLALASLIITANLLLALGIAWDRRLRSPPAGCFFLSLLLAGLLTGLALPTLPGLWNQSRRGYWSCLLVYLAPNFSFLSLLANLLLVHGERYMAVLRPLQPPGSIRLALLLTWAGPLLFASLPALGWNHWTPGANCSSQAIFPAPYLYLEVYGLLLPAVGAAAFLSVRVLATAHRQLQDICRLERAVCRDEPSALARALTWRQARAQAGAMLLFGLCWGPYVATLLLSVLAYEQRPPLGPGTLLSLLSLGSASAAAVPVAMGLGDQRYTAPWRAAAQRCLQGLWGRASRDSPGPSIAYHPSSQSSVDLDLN
Description: EPAC FRET cAMP accumulation assay in TGR5-expressing HEK cells; inactive in non-TGR5 cells. Type of assay: cell-based. On the technique in general: Cyclic AMP is a second messenger, typically raised through Gs and lowered through Gi signalling.

Regarding `C/C=C(/C)C(=O)OCC[C@H]1[C@@H](Cc2ccc(OC)c(OC)c2)CO[C@@H]1c1ccc(OC)c(OC)c1` [compound 1, LT-188A], a half-maximal effect (EC50) was put at 23 µM.

In general, EC50 refers to the concentration giving half of the maximal effect. Low values mean higher potency in that assay, high ones lower potency in that assay.

The values are drawn from article PMC12038849, “Identification and Characterization of a Leoligin-Inspired Synthetic Lignan as a TGR5 Agonist” (Journal of Natural Products, 2025).
